Key:
Test in all cases: cell-based
Assay type in all cases: cell-based
hNav1.7 = hNav1.7 (Homo sapiens, UniProt Q15858); settings: Table 12; PatchXpress, tonic block; read-out: PX hNav1.7 Tonic IC50
hNav1.6 = hNav1.6 (Homo sapiens, UniProt Q9UQD0); settings: Table 15; for Nav1.6/Nav1.7: ratio of PX tonic IC50 values; for IC50: read-out: PX hNav1.6 Tonic IC50
hNav1.4 = hNav1.4 (Homo sapiens, UniProt P35499); settings: Table 12; for IC50: PatchXpress, tonic block, read-out: PX hNav1.4 Tonic IC50; for Nav1.4/Nav1.7: ratio of PX tonic IC50 values

Chain of hNav1.7 (Q15858 whole entry): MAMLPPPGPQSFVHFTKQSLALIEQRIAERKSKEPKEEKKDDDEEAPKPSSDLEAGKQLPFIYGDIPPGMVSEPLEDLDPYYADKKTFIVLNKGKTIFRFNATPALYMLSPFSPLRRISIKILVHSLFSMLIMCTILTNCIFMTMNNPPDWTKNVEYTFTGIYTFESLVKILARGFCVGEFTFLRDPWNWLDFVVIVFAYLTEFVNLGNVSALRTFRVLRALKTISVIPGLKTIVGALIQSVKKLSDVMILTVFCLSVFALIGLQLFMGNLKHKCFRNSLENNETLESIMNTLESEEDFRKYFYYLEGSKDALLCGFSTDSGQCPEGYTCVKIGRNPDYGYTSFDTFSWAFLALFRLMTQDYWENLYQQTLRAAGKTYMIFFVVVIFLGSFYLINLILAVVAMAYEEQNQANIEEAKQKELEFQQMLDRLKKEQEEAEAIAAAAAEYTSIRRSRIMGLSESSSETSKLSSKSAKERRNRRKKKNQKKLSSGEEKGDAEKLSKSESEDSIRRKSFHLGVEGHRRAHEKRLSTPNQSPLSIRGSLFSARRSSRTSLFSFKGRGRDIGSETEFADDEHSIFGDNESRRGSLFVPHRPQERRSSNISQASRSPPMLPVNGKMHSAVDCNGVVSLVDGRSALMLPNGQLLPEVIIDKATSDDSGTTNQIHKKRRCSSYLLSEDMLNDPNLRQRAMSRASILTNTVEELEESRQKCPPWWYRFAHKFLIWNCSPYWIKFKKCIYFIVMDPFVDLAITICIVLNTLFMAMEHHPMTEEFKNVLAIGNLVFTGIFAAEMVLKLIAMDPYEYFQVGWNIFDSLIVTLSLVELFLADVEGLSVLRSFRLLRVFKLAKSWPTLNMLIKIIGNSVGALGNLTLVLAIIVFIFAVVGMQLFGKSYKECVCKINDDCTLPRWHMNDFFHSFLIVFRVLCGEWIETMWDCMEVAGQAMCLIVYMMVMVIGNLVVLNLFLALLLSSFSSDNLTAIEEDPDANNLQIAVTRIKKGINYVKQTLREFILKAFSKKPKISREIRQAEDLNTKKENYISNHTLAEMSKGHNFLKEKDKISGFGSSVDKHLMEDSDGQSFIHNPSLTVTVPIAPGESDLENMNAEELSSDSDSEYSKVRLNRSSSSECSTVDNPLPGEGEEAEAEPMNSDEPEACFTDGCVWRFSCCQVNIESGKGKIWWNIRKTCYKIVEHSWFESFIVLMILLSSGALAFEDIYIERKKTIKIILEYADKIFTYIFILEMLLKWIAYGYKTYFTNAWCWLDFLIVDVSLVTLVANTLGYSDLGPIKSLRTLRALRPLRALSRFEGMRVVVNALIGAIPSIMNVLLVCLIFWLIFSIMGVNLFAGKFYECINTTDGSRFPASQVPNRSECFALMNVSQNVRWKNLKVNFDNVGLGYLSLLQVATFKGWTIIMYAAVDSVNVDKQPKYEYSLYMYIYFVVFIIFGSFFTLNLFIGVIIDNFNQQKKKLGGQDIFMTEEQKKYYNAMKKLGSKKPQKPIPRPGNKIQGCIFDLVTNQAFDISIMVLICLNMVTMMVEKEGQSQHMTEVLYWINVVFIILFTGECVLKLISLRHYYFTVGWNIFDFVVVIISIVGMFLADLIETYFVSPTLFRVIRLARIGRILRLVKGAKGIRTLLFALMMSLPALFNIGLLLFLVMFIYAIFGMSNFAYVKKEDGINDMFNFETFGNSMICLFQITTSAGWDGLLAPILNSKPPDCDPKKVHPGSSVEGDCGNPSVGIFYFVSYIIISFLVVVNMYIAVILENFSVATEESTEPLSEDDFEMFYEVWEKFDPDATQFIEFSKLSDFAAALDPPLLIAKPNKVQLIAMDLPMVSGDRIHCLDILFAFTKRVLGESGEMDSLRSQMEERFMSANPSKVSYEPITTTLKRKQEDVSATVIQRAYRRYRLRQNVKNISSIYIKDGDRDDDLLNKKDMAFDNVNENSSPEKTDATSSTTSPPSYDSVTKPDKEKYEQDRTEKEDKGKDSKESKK
Chain of hNav1.6 (Q9UQD0 whole entry): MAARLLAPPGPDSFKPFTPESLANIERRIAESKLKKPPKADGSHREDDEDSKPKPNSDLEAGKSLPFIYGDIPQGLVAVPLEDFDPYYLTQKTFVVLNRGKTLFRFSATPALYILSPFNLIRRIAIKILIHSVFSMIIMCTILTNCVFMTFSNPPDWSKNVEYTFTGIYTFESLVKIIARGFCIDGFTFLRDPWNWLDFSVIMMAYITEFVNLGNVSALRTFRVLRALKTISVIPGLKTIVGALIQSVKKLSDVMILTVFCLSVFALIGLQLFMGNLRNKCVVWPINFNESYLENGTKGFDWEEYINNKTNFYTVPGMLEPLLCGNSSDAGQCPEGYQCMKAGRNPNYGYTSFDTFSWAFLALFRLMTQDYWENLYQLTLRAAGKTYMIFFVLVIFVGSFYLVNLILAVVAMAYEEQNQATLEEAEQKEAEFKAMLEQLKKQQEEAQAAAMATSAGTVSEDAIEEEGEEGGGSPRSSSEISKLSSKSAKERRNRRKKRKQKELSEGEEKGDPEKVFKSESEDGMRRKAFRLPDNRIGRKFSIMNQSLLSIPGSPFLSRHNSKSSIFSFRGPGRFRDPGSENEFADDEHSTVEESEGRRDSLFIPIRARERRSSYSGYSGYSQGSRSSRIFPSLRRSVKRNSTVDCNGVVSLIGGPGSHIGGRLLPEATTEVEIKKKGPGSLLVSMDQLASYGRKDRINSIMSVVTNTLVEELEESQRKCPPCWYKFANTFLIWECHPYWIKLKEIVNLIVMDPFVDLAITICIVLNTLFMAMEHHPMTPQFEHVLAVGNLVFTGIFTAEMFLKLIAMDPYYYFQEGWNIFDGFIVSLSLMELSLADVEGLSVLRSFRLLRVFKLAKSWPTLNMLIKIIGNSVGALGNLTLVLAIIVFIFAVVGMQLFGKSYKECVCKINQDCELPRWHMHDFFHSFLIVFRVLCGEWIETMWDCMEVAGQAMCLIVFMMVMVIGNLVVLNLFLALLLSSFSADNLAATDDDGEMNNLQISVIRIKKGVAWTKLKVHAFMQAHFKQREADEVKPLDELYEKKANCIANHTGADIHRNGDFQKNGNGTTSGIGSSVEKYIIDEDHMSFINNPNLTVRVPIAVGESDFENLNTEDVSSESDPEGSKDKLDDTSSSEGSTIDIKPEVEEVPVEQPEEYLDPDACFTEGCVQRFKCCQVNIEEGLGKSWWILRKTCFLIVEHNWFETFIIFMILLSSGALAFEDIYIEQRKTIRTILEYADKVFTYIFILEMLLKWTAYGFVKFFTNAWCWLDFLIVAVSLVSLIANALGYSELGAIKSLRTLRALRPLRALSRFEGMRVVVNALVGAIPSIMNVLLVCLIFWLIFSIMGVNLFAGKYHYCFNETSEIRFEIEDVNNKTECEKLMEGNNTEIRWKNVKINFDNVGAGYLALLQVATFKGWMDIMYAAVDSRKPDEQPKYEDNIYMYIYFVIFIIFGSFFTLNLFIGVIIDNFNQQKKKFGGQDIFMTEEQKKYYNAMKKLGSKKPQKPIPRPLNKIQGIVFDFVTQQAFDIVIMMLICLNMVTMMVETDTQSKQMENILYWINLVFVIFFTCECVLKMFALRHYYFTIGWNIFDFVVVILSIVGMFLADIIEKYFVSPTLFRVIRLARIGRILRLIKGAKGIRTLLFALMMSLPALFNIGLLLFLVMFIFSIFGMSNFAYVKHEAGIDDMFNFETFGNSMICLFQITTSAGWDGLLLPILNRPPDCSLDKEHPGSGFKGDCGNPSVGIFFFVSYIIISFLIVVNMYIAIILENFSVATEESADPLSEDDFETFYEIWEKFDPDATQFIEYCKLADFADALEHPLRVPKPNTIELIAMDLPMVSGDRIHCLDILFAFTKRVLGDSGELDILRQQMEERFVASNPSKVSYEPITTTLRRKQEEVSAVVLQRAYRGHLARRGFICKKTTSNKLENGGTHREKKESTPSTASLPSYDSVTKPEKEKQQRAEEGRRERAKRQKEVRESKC

Row | Structure (SMILES) | IC50 (hNav1.7) [nM] | Nav1.6/Nav1.7 (hNav1.6) | IC50 (hNav1.6) [nM] | IC50 (hNav1.4) [nM] | Nav1.4/Nav1.7 (hNav1.4)
1 | C#CC[C@H](NC(=O)[C@@H](N)CCC(=O)O)C(=O)N[C@@H](Cc1ccc(O)cc1)C(=O)N[C@H]1CSSC[C@@H]2NC(=O)[C@@H]3CSSC[C@@H](C(=O)N[C@@H](CCCNC(=N)N)C(=O)N[C@@H](CCCCN)C(=O)N[C@@H](CCC(=O)O)C(=O)N[C@H](C(N)=O)[C@@H](C)CC)NC(=O)[C@H](Cc4c[nH]c5ccccc45)NC(=O)[C@H](CC(C)C)NC(=O)[C@H](CCCCN)NC(=O)[C@H](CSSC[C@H](NC(=O)[C@H]([C@@H](C)O)NC(=O)[C@H](Cc4c[nH]c5ccccc45)NC(=O)[C@H](CCCC)NC(=O)[C@H](Cc4c[nH]c5ccccc45)NC(=O)[C@H](CCCCN)NC(=O)[C@H](CCC(N)=O)NC1=O)C(=O)N[C@@H](CC(=O)O)C(=O)N[C@@H](CO)C(=O)N[C@@H](CCCCN)C(=O)N[C@@H](CCCNC(=N)N)C(=O)N[C@@H](C)C(=O)N3)NC(=O)[C@H](CCCNC(=N)N)NC(=O)[C@H](CC(C)C)NC(=O)CNC(=O)[C@H](CCC(=O)O)NC2=O [compound 707] | 0.738 | 236 | 174 | 112 | 152
2 | C#CC[C@H](N)C(=O)N[C@@H](Cc1ccc(O)cc1)C(=O)N[C@H]1CSSC[C@@H]2NC(=O)[C@@H]3CSSC[C@@H](C(=O)N[C@@H](CCCNC(=N)N)C(=O)N[C@@H](CCCCN)C(=O)N[C@@H](CCC(=O)O)C(=O)N[C@H](C(N)=O)[C@@H](C)CC)NC(=O)[C@H](Cc4c[nH]c5ccccc45)NC(=O)[C@H](CC(C)C)NC(=O)[C@H](CCCCN)NC(=O)[C@H](CSSC[C@H](NC(=O)[C@H](CCC(=O)O)NC(=O)[C@H](Cc4c[nH]c5ccccc45)NC(=O)[C@H](CCCC)NC(=O)[C@H](Cc4c[nH]c5ccccc45)NC(=O)[C@H](CCCCN)NC(=O)[C@H](CCC(N)=O)NC1=O)C(=O)N[C@@H](CC(=O)O)C(=O)N[C@@H](CO)C(=O)N[C@@H](CCCCN)C(=O)N[C@@H](CCCNC(=N)N)C(=O)N[C@@H](C)C(=O)N3)NC(=O)[C@H](CCCNC(=N)N)NC(=O)[C@H](CC(C)C)NC(=O)CNC(=O)[C@H](CCC(=O)O)NC2=O [compound 712] | 16.4 | 395 | 6460 | 1580 | 97
3 | C#CC[C@H](N)C(=O)N[C@@H](Cc1ccc(O)cc1)C(=O)N[C@H]1CSSC[C@@H]2NC(=O)[C@@H]3CSSC[C@@H](C(=O)N[C@@H](CCCNC(=N)N)C(=O)N[C@@H](CCCCN)C(=O)N[C@@H](CCC(=O)O)C(=O)N[C@H](C(N)=O)[C@@H](C)CC)NC(=O)[C@H](Cc4c[nH]c5ccccc45)NC(=O)[C@H](CC(C)C)NC(=O)[C@H](CCCCN)NC(=O)[C@H](CSSC[C@H](NC(=O)[C@H]([C@@H](C)O)NC(=O)[C@H](Cc4c[nH]c5ccccc45)NC(=O)[C@H](CCCC)NC(=O)[C@H](Cc4c[nH]c5ccccc45)NC(=O)[C@H](CCCCN)NC(=O)[C@H](CCC(N)=O)NC1=O)C(=O)N[C@@H](CC(=O)O)C(=O)N[C@@H](CO)C(=O)N[C@@H](CCCCN)C(=O)N[C@@H](CCCNC(=N)N)C(=O)N[C@@H](C)C(=O)N3)NC(=O)[C@H](CCCNC(=N)N)NC(=O)[C@H](CC(C)C)NC(=O)CNC(=O)[C@H](CCCCN)NC2=O [compound 718] | 1.42 | 104 | 148 | 33.9 | 24
4 | C#CC[C@H](N)C(=O)N[C@@H](Cc1ccc(O)cc1)C(=O)N[C@H]1CSSC[C@@H]2NC(=O)[C@@H]3CSSC[C@@H](C(=O)N[C@@H](CCCNC(=N)N)C(=O)N[C@@H](CCCCN)C(=O)N[C@@H](CCC(=O)O)C(=O)N[C@H](C(N)=O)[C@@H](C)CC)NC(=O)[C@H](Cc4c[nH]c5ccccc45)NC(=O)[C@H](CC(C)C)NC(=O)[C@H](CCCCN)NC(=O)[C@H](CSSC[C@H](NC(=O)[C@H]([C@@H](C)O)NC(=O)[C@H](Cc4c[nH]c5ccccc45)NC(=O)[C@H](CCCC)NC(=O)[C@H](Cc4c[nH]c5ccccc45)NC(=O)[C@H](CCCCN)NC(=O)[C@H](CCC(N)=O)NC1=O)C(=O)N[C@@H](CC(=O)O)C(=O)N[C@@H](CO)C(=O)N[C@@H](CCCCN)C(=O)N[C@@H](CCCNC(=N)N)C(=O)N[C@@H](C)C(=O)N3)NC(=O)[C@H](CCCCN)NC(=O)[C@H](CC(C)C)NC(=O)CNC(=O)[C@H](CCC(=O)O)NC2=O [compound 721] | 0.519 | 471 | 245 | 185 | 357
5 | C#CC[C@H](N)C(=O)N[C@@H](Cc1ccc(O)cc1)C(=O)N[C@H]1CSSC[C@@H]2NC(=O)[C@@H]3CSSC[C@@H](C(=O)N[C@@H](CCCNC(=N)N)C(=O)N[C@@H](CCCCN)C(=O)N[C@@H](CCC(=O)O)C(=O)N[C@H](C(N)=O)[C@@H](C)CC)NC(=O)[C@H](Cc4c[nH]c5ccccc45)NC(=O)[C@H](CC(C)C)NC(=O)[C@H](CCC(=O)O)NC(=O)[C@H](CSSC[C@H](NC(=O)[C@H]([C@@H](C)O)NC(=O)[C@H](Cc4c[nH]c5ccccc45)NC(=O)[C@H](CCCC)NC(=O)[C@H](Cc4c[nH]c5ccccc45)NC(=O)[C@H](CCCCN)NC(=O)[C@H](CCC(N)=O)NC1=O)C(=O)N[C@@H](CC(=O)O)C(=O)N[C@@H](CO)C(=O)N[C@@H](CCCCN)C(=O)N[C@@H](CCCNC(=N)N)C(=O)N[C@@H](C)C(=O)N3)NC(=O)[C@H](CCCNC(=N)N)NC(=O)[C@H](CC(C)C)NC(=O)CNC(=O)[C@H](CCC(=O)O)NC2=O [compound 722] |  | >442 |  |  | >442
6 | C#CC[C@H](N)C(=O)N[C@@H](Cc1ccc(O)cc1)C(=O)N[C@H]1CSSC[C@@H]2NC(=O)[C@@H]3CSSC[C@@H](C(=O)N[C@@H](CCCNC(=N)N)C(=O)N[C@@H](CCCCN)C(=O)N[C@@H](CC(=O)O)C(=O)N[C@H](C(N)=O)[C@@H](C)CC)NC(=O)[C@H](Cc4c[nH]c5ccccc45)NC(=O)[C@H](CC(C)C)NC(=O)[C@H](CCCCN)NC(=O)[C@H](CSSC[C@H](NC(=O)[C@H]([C@@H](C)O)NC(=O)[C@H](Cc4c[nH]c5ccccc45)NC(=O)[C@H](CCCC)NC(=O)[C@H](Cc4c[nH]c5ccccc45)NC(=O)[C@H](CCCCN)NC(=O)[C@H](CCC(N)=O)NC1=O)C(=O)N[C@@H](CC(=O)O)C(=O)N[C@@H](CO)C(=O)N[C@@H](CCCCN)C(=O)N[C@@H](CCCNC(=N)N)C(=O)N[C@@H](C)C(=O)N3)NC(=O)[C@H](CCCNC(=N)N)NC(=O)[C@H](CC(C)C)NC(=O)CNC(=O)[C@H](CCC(=O)O)NC2=O [compound 723] | 5.98 | 270 | 1620 | 78.4 | 13
7 | C#CC[C@H](N)C(=O)N[C@@H](Cc1ccc(O)cc1)C(=O)N[C@H]1CSSC[C@@H]2NC(=O)[C@@H]3CSSC[C@@H](C(=O)N[C@@H](CCCNC(=N)N)C(=O)N[C@@H](CCCCN)C(=O)N[C@@H](CCC(=O)O)C(=O)N[C@H](C(N)=O)[C@@H](C)CC)NC(=O)[C@H](Cc4c[nH]c5ccccc45)NC(=O)[C@H](CC(C)C)NC(=O)[C@H](CCCCN)NC(=O)[C@H](CSSC[C@H](NC(=O)[C@H]([C@@H](C)O)NC(=O)[C@H](Cc4c[nH]c5ccccc45)NC(=O)[C@H](CCCC)NC(=O)[C@H](Cc4c[nH]c5ccccc45)NC(=O)[C@H](CCCCN)NC(=O)[C@H](CCC(N)=O)NC1=O)C(=O)N[C@@H](CC(=O)O)C(=O)N[C@@H](CO)C(=O)N[C@@H](CCCCN)C(=O)N[C@@H](CCCNC(=N)N)C(=O)N[C@@H](C)C(=O)N3)NC(=O)[C@H](C)NC(=O)[C@H](CC(C)C)NC(=O)CNC(=O)[C@H](CCC(=O)O)NC2=O [compound 727] | 905 | >11 | > 10000 |  | 

Reference: patent publication US10344060B2 (priority 2013, dated 2019)
